Measurements as given in ChEMBL document CHEMBL1201861, “Genomics of Drug Sensitity in Cancer screening data, Wellcome Trust Sanger Institute”.

Tests used:
Assay in all cases: cells
BT-20 = format: functional, cell-based, Homo sapiens; conditions: Homo sapiens, BT-20
Description: SANGER: Inhibition of human BT-20 cell growth in a cell viability assay.

SK-N-DZ = format: functional, cell-based, Homo sapiens; conditions: Homo sapiens, SK-N-DZ
Description: SANGER: Inhibition of human SK-N-DZ cell growth in a cell viability assay.

COLO-800 = format: functional, cell-based, Homo sapiens; conditions: Homo sapiens, COLO-800
Description: SANGER: Inhibition of human COLO-800 cell growth in a cell viability assay.

HSC-3 = format: functional, cell-based, Homo sapiens; conditions: Homo sapiens, HSC-3
Description: SANGER: Inhibition of human HSC-3 cell growth in a cell viability assay.

MIA PaCa-2 = format: functional, cell-based, Homo sapiens; conditions: Homo sapiens, MIA PaCa-2
Description: SANGER: Inhibition of human MIA-PaCa-2 cell growth in a cell viability assay.

LB373-MEL-D = format: functional, cell-based, Homo sapiens; conditions: Homo sapiens, LB373-MEL-D
Description: SANGER: Inhibition of human LB373-MEL-D cell growth in a cell viability assay.

KS-1 = format: functional, cell-based, Homo sapiens; conditions: Homo sapiens, KS-1
Description: SANGER: Inhibition of human KS-1 cell growth in a cell viability assay.

PANC-03-27 = format: functional, cell-based, Homo sapiens; conditions: Homo sapiens, PANC-03-27
Description: SANGER: Inhibition of human PANC-03-27 cell growth in a cell viability assay.

NCI-H747 = format: functional, cell-based; conditions: Homo sapiens
Description: SANGER: Inhibition of human NCI-H747 cell growth in a cell viability assay.

T84 = format: functional, cell-based, Homo sapiens; conditions: Homo sapiens, T84
Description: SANGER: Inhibition of human T84 cell growth in a cell viability assay.

KM12 = format: functional, cell-based, Homo sapiens; conditions: Homo sapiens, KM12
Description: SANGER: Inhibition of human KM12 cell growth in a cell viability assay.

KYSE-520 cell line = format: functional, cell-based, Homo sapiens; conditions: Homo sapiens, KYSE-520
Description: SANGER: Inhibition of human KYSE-520 cell growth in a cell viability assay.

D-247MG = format: functional, cell-based, Homo sapiens; conditions: Homo sapiens, D-247MG
Description: SANGER: Inhibition of human D-247MG cell growth in a cell viability assay.

MV4-11 = format: functional, cell-based, MV-4-11; conditions: Homo sapiens
Description: SANGER: Inhibition of human MV-4-11 cell growth in a cell viability assay.

SCC-25 = format: functional, cell-based, Homo sapiens; conditions: Homo sapiens, SCC-25
Description: SANGER: Inhibition of human SCC-25 cell growth in a cell viability assay.

DJM-1 = format: functional, cell-based, Homo sapiens; conditions: Homo sapiens, DJM-1
Description: SANGER: Inhibition of human DJM-1 cell growth in a cell viability assay.

J-RT3-T3-5 = format: functional, cell-based; conditions: Homo sapiens
Description: SANGER: Inhibition of human J-RT3-T3-5 cell growth in a cell viability assay.

MKN-45 = format: functional, cell-based, Homo sapiens; conditions: Homo sapiens, MKN-45
Description: SANGER: Inhibition of human MKN45 cell growth in a cell viability assay.

DK-MG = format: functional, cell-based, Homo sapiens; conditions: Homo sapiens, DK-MG
Description: SANGER: Inhibition of human DK-MG cell growth in a cell viability assay.

UMC-11 = format: functional, cell-based, Homo sapiens; conditions: Homo sapiens, UMC-11
Description: SANGER: Inhibition of human UMC-11 cell growth in a cell viability assay.

A673 = format: functional, cell-based, Homo sapiens; conditions: Homo sapiens, A673
Description: SANGER: Inhibition of human A673 cell growth in a cell viability assay.

786-0 = format: functional, cell-based, Homo sapiens; conditions: Homo sapiens
Description: SANGER: Inhibition of human 786-0 cell growth in a cell viability assay.

PSN1 = format: functional, cell-based, Homo sapiens; conditions: Homo sapiens, PSN1
Description: SANGER: Inhibition of human PSN1 cell growth in a cell viability assay.

NCI-H2342 = format: functional, cell-based; conditions: Homo sapiens
Description: SANGER: Inhibition of human NCI-H2342 cell growth in a cell viability assay.

NY = format: functional, cell-based, Homo sapiens; conditions: Homo sapiens, NY
Description: SANGER: Inhibition of human NY cell growth in a cell viability assay.

YAPC = format: functional, cell-based, Homo sapiens; conditions: Homo sapiens, YAPC
Description: SANGER: Inhibition of human YAPC cell growth in a cell viability assay.

D283 Med = format: functional, cell-based, Homo sapiens; conditions: Homo sapiens, D283 Med
Description: SANGER: Inhibition of human D-283MED cell growth in a cell viability assay.

MKN-28 = format: functional, cell-based, Homo sapiens; conditions: Homo sapiens, MKN-28
Description: SANGER: Inhibition of human MKN28 cell growth in a cell viability assay.

BB49-HNC = format: functional, cell-based, Homo sapiens; conditions: Homo sapiens, BB49-HNC
Description: SANGER: Inhibition of human BB49-HNC cell growth in a cell viability assay.

SW780 = format: functional, cell-based, Homo sapiens; conditions: Homo sapiens, SW780
Description: SANGER: Inhibition of human SW780 cell growth in a cell viability assay.

HuCCT-1 = format: functional, cell-based, Homo sapiens, HuCCT1; conditions: Homo sapiens, HuCCT-1
Description: SANGER: Inhibition of human HuCCT1 cell growth in a cell viability assay.

Daoy = format: functional, cell-based, Homo sapiens; conditions: Homo sapiens, Daoy
Description: SANGER: Inhibition of human Daoy cell growth in a cell viability assay.

697 = format: functional, cell-based; conditions: Homo sapiens
Description: SANGER: Inhibition of human 697 cell growth in a cell viability assay.

SW982 = format: functional, cell-based; conditions: Homo sapiens
Description: SANGER: Inhibition of human SW982 cell growth in a cell viability assay.

NEC8 = format: functional, cell-based, Homo sapiens; conditions: Homo sapiens, NEC8
Description: SANGER: Inhibition of human NEC8 cell growth in a cell viability assay.

HO-1-N-1 = format: functional, cell-based, Homo sapiens; conditions: Homo sapiens, HO-1-N-1
Description: SANGER: Inhibition of human HO-1-N-1 cell growth in a cell viability assay.

EW-18 = format: functional, cell-based; conditions: Homo sapiens
Description: SANGER: Inhibition of human EW-18 cell growth in a cell viability assay.

KP-4 = format: functional, cell-based, Homo sapiens; conditions: Homo sapiens, KP-4; read-out: IC50
Description: SANGER: Inhibition of human KP-4 cell growth in a cell viability assay.

OE19 = format: functional, cell-based, Homo sapiens; conditions: Homo sapiens, OE19
Description: SANGER: Inhibition of human OE19 cell growth in a cell viability assay.

NCI-H727 = format: functional, cell-based, Homo sapiens; conditions: Homo sapiens, NCI-H727
Description: SANGER: Inhibition of human NCI-H727 cell growth in a cell viability assay.

EC-GI-10 = format: functional, cell-based, Homo sapiens; conditions: Homo sapiens, EC-GI-10
Description: SANGER: Inhibition of human EC-GI-10 cell growth in a cell viability assay.

EFM-19 = format: functional, cell-based, Homo sapiens; conditions: Homo sapiens, EFM-19
Description: SANGER: Inhibition of human EFM-19 cell growth in a cell viability assay.

MCF7 = format: functional, cell-based, Homo sapiens; conditions: Homo sapiens, MCF7
Description: SANGER: Inhibition of human MCF7 cell growth in a cell viability assay.

LCLC-97TM1 = format: functional, cell-based, Homo sapiens; conditions: Homo sapiens, LCLC-97TM1
Description: SANGER: Inhibition of human LCLC-97TM1 cell growth in a cell viability assay.

LNCaP-Clone-FGC = format: functional, cell-based, Homo sapiens; conditions: Homo sapiens, LNCaP-Clone-FGC
Description: SANGER: Inhibition of human LNCaP-Clone-FGC cell growth in a cell viability assay.

SW1783 = format: functional, cell-based; conditions: Homo sapiens
Description: SANGER: Inhibition of human SW1783 cell growth in a cell viability assay.

U-266 = format: functional, cell-based; conditions: Homo sapiens
Description: SANGER: Inhibition of human U-266 cell growth in a cell viability assay.

MEG-01 = format: functional, cell-based; conditions: Homo sapiens
Description: SANGER: Inhibition of human MEG-01 cell growth in a cell viability assay.

TE-12 = format: functional, cell-based; conditions: Homo sapiens
Description: SANGER: Inhibition of human TE-12 cell growth in a cell viability assay.

BB30-HNC = format: functional, cell-based, Homo sapiens; conditions: Homo sapiens, BB30-HNC
Description: SANGER: Inhibition of human BB30-HNC cell growth in a cell viability assay.

ES8 = format: functional, cell-based, Homo sapiens; conditions: Homo sapiens, ES8
Description: SANGER: Inhibition of human ES8 cell growth in a cell viability assay.

NB7 = format: functional, cell-based; conditions: Homo sapiens
Description: SANGER: Inhibition of human NB7 cell growth in a cell viability assay.

## COc1cc([C@@H]2c3cc4c(cc3[C@@H](O[C@@H]3O[C@@H]5CO[C@@H](C)O[C@H]5[C@H](O)[C@H]3O)[C@H]3COC(=O)[C@H]23)OCO4)cc(OC)c1O [ETOPOSIDE]
BT-20
  IC50: 4580 nM
SK-N-DZ
  IC50: > 16000 nM
COLO-800
  IC50: 2100 nM
HSC-3
  IC50: 1440 nM
MIA PaCa-2
  IC50: 2660 nM
LB373-MEL-D
  IC50: > 16000 nM
KS-1
  IC50: 334 nM
PANC-03-27
  IC50: 1640 nM
NCI-H747
  IC50: > 16000 nM
T84
  IC50: > 16000 nM
KM12
  IC50: 1880 nM
KYSE-520 cell line
  IC50: > 16000 nM
D-247MG
  IC50: > 16000 nM
MV4-11
  IC50: 151 nM
SCC-25
  IC50: 6630 nM
DJM-1
  IC50: 203 nM
J-RT3-T3-5
  IC50: 1590 nM
MKN-45
  IC50: 1870 nM
DK-MG
  IC50: > 16000 nM
UMC-11
  IC50: > 16000 nM
A673
  IC50: 2160 nM
786-0
  IC50: 492 nM
PSN1
  IC50: > 16000 nM
NCI-H2342
  IC50: 555 nM
NY
  IC50: 4490 nM
YAPC
  IC50: > 16000 nM
D283 Med
  IC50: 2200 nM
MKN-28
  IC50: 2550 nM
BB49-HNC
  IC50: > 16000 nM
SW780
  IC50: > 16000 nM
HuCCT-1
  IC50: 1910 nM
Daoy
  IC50: 368 nM
697
  IC50: 243 nM
SW982
  IC50: 131 nM
NEC8
  IC50: 539 nM
HO-1-N-1
  IC50: 2380 nM
EW-18
  IC50: > 16000 nM
KP-4
  IC50: 416 nM
OE19
  IC50: > 16000 nM
NCI-H727
  IC50: > 16000 nM
EC-GI-10
  IC50: > 16000 nM
EFM-19
  IC50: 868 nM
MCF7
  IC50: 831 nM
LCLC-97TM1
  IC50: 766 nM
LNCaP-Clone-FGC
  IC50: > 16000 nM
SW1783
  IC50: 3060 nM
U-266
  IC50: > 16000 nM
MEG-01
  IC50: 4750 nM
TE-12
  IC50: > 16000 nM
BB30-HNC
  IC50: 64.2 nM
ES8
  IC50: 142 nM

## COc1ccc(C2=N[C@@H](c3ccc(Cl)cc3)[C@@H](c3ccc(Cl)cc3)N2C(=O)N2CCNC(=O)C2)c(OC(C)C)c1 [NUTLIN-3]
BT-20
  IC50: > 8000 nM
SK-N-DZ
  IC50: > 8000 nM
COLO-800
  IC50: > 8000 nM
HSC-3
  IC50: > 8000 nM
MIA PaCa-2
  IC50: > 8000 nM
KS-1
  IC50: 3020 nM
PANC-03-27
  IC50: > 8000 nM
NCI-H747
  IC50: > 8000 nM
T84
  IC50: > 8000 nM
KM12
  IC50: > 8000 nM
KYSE-520 cell line
  IC50: > 8000 nM
D-247MG
  IC50: 4750 nM
MV4-11
  IC50: 612 nM
SCC-25
  IC50: > 8000 nM
DJM-1
  IC50: > 8000 nM
J-RT3-T3-5
  IC50: > 8000 nM
MKN-45
  IC50: > 8000 nM
DK-MG
  IC50: 2620 nM
UMC-11
  IC50: > 8000 nM
A673
  IC50: > 8000 nM
786-0
  IC50: > 8000 nM
PSN1
  IC50: > 8000 nM
NCI-H2342
  IC50: > 8000 nM
NY
  IC50: > 8000 nM
YAPC
  IC50: > 8000 nM
D283 Med
  IC50: 3580 nM
MKN-28
  IC50: > 8000 nM
BB49-HNC
  IC50: > 8000 nM
SW780
  IC50: 2510 nM
HuCCT-1
  IC50: > 8000 nM
Daoy
  IC50: > 8000 nM
697
  IC50: 5450 nM
SW982
  IC50: 3510 nM
NEC8
  IC50: 1220 nM
HO-1-N-1
  IC50: > 8000 nM
EW-18
  IC50: > 8000 nM
KP-4
  IC50: > 8000 nM
OE19
  IC50: > 8000 nM
NCI-H727
  IC50: > 8000 nM
EFM-19
  IC50: > 8000 nM
MCF7
  IC50: 5440 nM
LCLC-97TM1
  IC50: > 8000 nM
LNCaP-Clone-FGC
  IC50: 2640 nM
SW1783
  IC50: > 8000 nM
U-266
  IC50: > 8000 nM
NB7
  IC50: > 8000 nM
MEG-01
  IC50: > 8000 nM
TE-12
  IC50: > 8000 nM
BB30-HNC
  IC50: > 8000 nM
ES8
  IC50: > 8000 nM

## CCC1=C[C@@H]2CN(C1)Cc1c([nH]c3ccccc13)[C@@](C(=O)OC)(c1cc3c(cc1OC)N(C)[C@H]1[C@@](O)(C(=O)OC)[C@H](OC(C)=O)[C@]4(CC)C=CCN5CC[C@]31[C@@H]54)C2 [VINORELBINE]
BT-20
  IC50: 12.4 nM
SK-N-DZ
  IC50: > 64 nM
COLO-800
  IC50: 17 nM
HSC-3
  IC50: 5.62 nM
MIA PaCa-2
  IC50: 5.83 nM
LB373-MEL-D
  IC50: 46.8 nM
KS-1
  IC50: 1.47 nM
PANC-03-27
  IC50: 5.95 nM
NCI-H747
  IC50: > 64 nM
T84
  IC50: 53.9 nM
KM12
  IC50: 2.61 nM
KYSE-520 cell line
  IC50: 17.8 nM
D-247MG
  IC50: 12.6 nM
MV4-11
  IC50: 10.4 nM
SCC-25
  IC50: 12.5 nM
DJM-1
  IC50: 15.9 nM
J-RT3-T3-5
  IC50: 6.83 nM
MKN-45
  IC50: 2.29 nM
DK-MG
  IC50: > 64 nM
UMC-11
  IC50: > 64 nM
A673
  IC50: 7.27 nM
786-0
  IC50: 2.99 nM
PSN1
  IC50: > 64 nM
NCI-H2342
  IC50: 4.78 nM
NY
  IC50: 8.12 nM
YAPC
  IC50: > 64 nM
D283 Med
  IC50: > 64 nM
MKN-28
  IC50: 4.77 nM
BB49-HNC
  IC50: > 64 nM
SW780
  IC50: 14.9 nM
HuCCT-1
  IC50: 2.78 nM
Daoy
  IC50: 6.65 nM
697
  IC50: 4.23 nM
SW982
  IC50: 5.3 nM
NEC8
  IC50: 13.9 nM
HO-1-N-1
  IC50: 6.65 nM
EW-18
  IC50: 7.05 nM
KP-4
  IC50: 2.71 nM
OE19
  IC50: 13.2 nM
NCI-H727
  IC50: > 64 nM
EC-GI-10
  IC50: > 64 nM
EFM-19
  IC50: 6.04 nM
MCF7
  IC50: 5.01 nM
LCLC-97TM1
  IC50: 1.56 nM
LNCaP-Clone-FGC
  IC50: 17.9 nM
SW1783
  IC50: > 64 nM
U-266
  IC50: 17.5 nM
MEG-01
  IC50: 20.8 nM
TE-12
  IC50: > 64 nM
BB30-HNC
  IC50: 0.399 nM
ES8
  IC50: 2.72 nM
